Measurements as given in patent USRE37781E1, “Substituted cyclic carbonyls and derivatives thereof useful as retroviral protease inhibitors” (DuPont Pharmaceuticals Company, priority 1991, dated 2002).
pKi: −log10 of the molar value. Converted amounts (≈) assume the structure as drawn. Where two headings read alike, the source gives them in different places.

Key:
[1] = target: single-chain tethered dimer of HIV protease (Human immunodeficiency virus 1, UniProt P04585); experiment: biochemical; format: biochemical
Protocol: HIV Protease Inhibition Assay—HPLC Method
Active protease was prepared as described therein by extraction with 67% acetic acid, dilution 33-fold with water, dialysis against water and then against a “refolding buffer” consisting of 20 mM MES, 1 mM dithiothreitol and 10% glycerol. Protease was stored as a stock preparation at 10 uM in refolding buffer.
Substrate: Peptide of sequence: aminobenzoyl-Ala-Thr-His-Gln-Val-Tyr-Phe(NO2)-Val-Arg-Lys-Ala containing p-nitrophenylalanine, was prepared by solid phase synthesis as previously described Cheng et al., op.cit. Stock solutions of 2 mM substrate were prepared in DMSO.
Inhibitory compounds were dissolved in sufficient DMSO to make 3 mM stock solutions. All further dilutions were prepared in “assay buffer”: 1M NaCl, 50 mM MES, pH 5.5, 1 mM EDTA, 1 mM DTT, […] glycerol.
Enzyme reaction: In a 2 ml screw-cap centrifuge tube were added 50 ul protease (final concentration 0.25 nM) and 0.1 ml inhibitory compound (final concentration […]). After 15 min preincubation at room temperature, the reaction was started with the addition of 0.05 ml substrate (final concentration 5 uM). Incubation was carried out at 30 C. for 1 hr. The reaction was stopped with 1 ml 0.1M ammonium hydroxide.
HPLC measurement of product formation: The product (aminobenzoyl-Ala-Thr-His-Gln-Val-Tyr) was separated from substrate on a Pharmacia MonoQ anion exchange column. The injection volume was 0.2 ml. The mobile phases were: A (20 mM trisHCl, pH 9.0, 0.02% sodium Azide, 10% acetonitrile), B (20 mM tris HCl, pH 9.0, 0.02% sodium azide, 0.5M ammonium formate, 10% acetonitrile). The mobile phases were pumped at 1 ml/min, with a gradient from 0 to 30% B in 5 min, 100% B for 4 min to wash the column, and a re-equilibration for 4 min. The retention time of the product was 3.6 min. Detection with a Shimadzu model RF535 fluorescence monitor was at 330 nm (excitation) and 430 (emission).

HIV-1 (RF) in MT-2 cells = experiment: microbe, parasite or virus in culture; format: cell-based
Summary of the method: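 Read-out: gag and pol viral RNA captured by 5′-biotinylated oligonucleotides on streptavidin-coated wells, detected with alkaline phosphatase-linked reporter oligonucleotides, calibrated against BH10 in vitro transcripts. Virus stocks (RF, MN, IIIB) come from H9 cultures; MT-2 host cells kept in RPMI 1640, 5% FCS.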

HIV protease = target: T1, HIV protease (Human immunodeficiency virus type 1 group M subtype B, UniProt P04585); experiment: biochemical; parameters: species or system HIV-1; details: Ki
T1 construct: plasmid containing HIV protease under the control of an inducible T7 promoter; made in house; host or cells: E. coli (inclusion bodies, T7 promoter)
Protocol: HIV Protease Inhibition Assay—Spectroscopic Method
Inclusion bodies were solubilized in 8M urea, 50 mM tris pH 8.0. Protease activity was recovered by dilution 20-fold into buffer containing 50 mM sodium acetate pH 5.5, 1 mM EDTA, 10% glycerol and 5% ethylene glycol. Enzyme was used at a final concentration of 1.0-10 ug/ml.
Stock solutions of 10 mM were prepared in DMSO.
All further dilutions were done in DMSO.

[2] = HIV protease inhibition, class symbols, read-out: Ki
[3] = HIV RNA assay, HIV-1 infected MT-2 cells, class symbols
[4] = Human immunodeficiency virus 1, MT2, HIV RNA assay, HIV-1 infected MT-2 cells, class symbols, read-out: IC90
[5] = Human immunodeficiency virus 1, MT2, Table 1c, read-out: IC90

NC(=NO)c1cccc(CN2CCC(O)C(Cc3ccccc3)N(Cc3cccc(C(N)=NO)c3)C2=O)c1 (stereo not shown) [30R]
pKi ([1]; Table 2t, read-out: Ki): > 8.00

O=S1(=O)N(CC2CC2)CC(O)C(Cc2ccccc2)N1CC1CC1 (stereo not shown) [30J]
pKi ([1]; Table 2t, read-out: Ki): < 6.00

O=C(O)c1ccc(CN2C(=O)N(Cc3ccc(C(=O)O)cc3)C(Cc3ccccc3)C(O)C(O)C2Cc2ccccc2)cc1 (stereo not shown) [Example 6B]
pKi [1, 2]: 6.00 to 8.00 | IC90 (HIV-1 (RF) in MT-2 cells; [3]): ++ (++=10 to 100 μg/mL)

O=C1N(Cc2cccnc2)C(Cc2ccccc2)C(O)C(O)C(Cc2ccccc2)N1CC1CC1 (stereo not shown) [Example 5G]
pKi [1, 2]: > 8.00 | IC90 (HIV-1 (RF) in MT-2 cells; [3]): +++ (+++=<10 μg/mL)

O=C1N(Cc2ccc(CO)cc2)CC(O)C(Cc2ccccc2)N1Cc1ccc(CO)cc1 (stereo not shown) [30B]
pKi ([1]; Table 2t, read-out: Ki): < 6.00

CCCN1C(=O)N(Cc2ccccc2)C(Cc2ccccc2)C(O)C(O)C1Cc1ccccc1 (stereo not shown) [Example 4G]
pKi [1]: > 8.00 | IC90 (HIV-1 (RF) in MT-2 cells; [4]): < 10 µg/mL

C=CCN1C(=O)N(CC2CC2)C(Cc2ccccc2)C(O)C(O)C1Cc1ccccc1 (stereo not shown) [Example 3W]
pKi [1, 2]: > 8.00 | IC90 (HIV-1 (RF) in MT-2 cells; [3]): +++ (+++=<10 μg/mL)

O=C1NC(Cc2ccccc2)C(O)C(O)C(Cc2ccccc2)N1CC1CC1 (stereo not shown) [Example 4X]
pKi [1, 2]: 6.00 to 8.00

C=CCN1C(=O)N(Cc2ccc3ccccc3n2)C(Cc2ccccc2)C(O)C(O)C1Cc1ccccc1 (stereo not shown) [Example 5D]
pKi [1, 2]: > 8.00 | IC90 (HIV-1 (RF) in MT-2 cells; [3]): +++ (+++=<10 μg/mL)

O=C1CCN(Cc2ccccc2)C(=O)N(Cc2ccccc2)C1Cc1ccccc1 (stereo not shown) [30S]
pKi ([1]; Table 2t, read-out: Ki): < 6.00

O=C1N(Cc2ccc(O)cc2)CC(O)C(Cc2ccccc2)N1Cc1ccc(O)cc1 (stereo not shown) [30D]
pKi ([1]; Table 2t, read-out: Ki): < 6.00

O=C1N(Cc2ccc(F)cc2)C(Cc2ccccc2)C(O)C(O)C(Cc2ccccc2)N1CC1CC1 (stereo not shown) [Example 6V]
pKi [1, 2]: > 8.00 | IC90 (HIV-1 (RF) in MT-2 cells; [3]): +++ (+++=<10 μg/mL)

N#Cc1cccc(CN2CCC(O)C(Cc3ccccc3)N(Cc3cccc(C#N)c3)C2=O)c1 (stereo not shown) [30P]
pKi ([1]; Table 2t, read-out: Ki): < 6.00

NCc1cccc(CN2C(=O)N(Cc3cccc(CN)c3)C(Cc3ccccc3)C(O)C(O)C2Cc2ccccc2)c1 (stereo not shown) [Example 6ZK]
pKi [1]: 6.00 to 8.00 | IC90 (HIV-1 (RF) in MT-2 cells; [4]): 10 to 100 µg/mL (≈ 17.7 to 177 µM)

C=COCCN1C(=O)N(CCOC=C)C(Cc2ccccc2)C(O)C(O)C1Cc1ccccc1 (stereo not shown) [Example 4D]
pKi [1]: 6.00 to 8.00

O=C1N(Cc2ccccc2F)C(Cc2ccccc2)C(O)C(O)C(Cc2ccccc2)N1Cc1ccccc1F (stereo not shown) [Example 6P]
pKi [1]: 6.00 to 8.00 | IC90 (HIV-1 (RF) in MT-2 cells; [4]): < 10 µg/mL

O=C1N(CC2CC2)CC(O)C(Cc2ccccc2)N1CC1CC1 (stereo not shown) [30E]
pKi ([1]; Table 2t, read-out: Ki): < 6.00

O=C1N(Cc2cccc(Cl)c2)C(Cc2ccccc2)C(O)C(O)C(Cc2ccccc2)N1CC1CC1 (stereo not shown) [Example 6ZH]
pKi [1, 2]: > 8.00 | IC90 (HIV-1 (RF) in MT-2 cells; [3]): +++ (+++=<10 μg/mL)

O=C1N(Cc2ccc3ccccc3c2)CCC(O)C(Cc2ccccc2)N1Cc1ccc2ccccc2c1 (stereo not shown) [30M]
pKi ([1]; Table 2t, read-out: Ki): < 6.00

O=C1[C@@H](Cc2ccccc2)C[C@@H](O)[C@@H](Cc2ccccc2)N1Cc1ccccc1 [Example 25A]
pKi [1]: < 6.00

N#Cc1cccc(CN2CC(O)C(Cc3ccccc3)N(Cc3cccc(C#N)c3)C2=O)c1 (stereo not shown) [30C]
pKi ([1]; Table 2t, read-out: Ki): < 6.00

O=C1N(Cc2ccccc2)CC(O)C(Cc2ccccc2)N1Cc1ccccc1 (racemic) [30A]
pKi ([1]; Table 2t, read-out: Ki): < 6.00

O=C1N(CCCCCCO)CC(O)C(Cc2ccccc2)N1CCCCCCO (stereo not shown) [30G]
pKi ([1]; Table 2t, read-out: Ki): < 6.00

O=S1(=O)N(Cc2ccccc2)CCC(O)C(Cc2ccccc2)N1Cc1ccccc1 (stereo not shown) [30Q]
pKi ([1]; Table 2t, read-out: Ki): < 6.00

N#CN=C1N(CC2CC2)[C@H](Cc2ccccc2)[C@H](O)[C@@H](O)[C@@H](Cc2ccccc2)N1CC1CC1 [Example 1BS]
pKi (HIV protease): 6.00 to 8.00 | IC90 (HIV-1 (RF) in MT-2 cells; [5]): < 10 µg/mL | melting point: 211.2 °C

CC(C)=CCN1C(=NC#N)N(CC=C(C)C)C(Cc2ccccc2)C(O)C(O)C1Cc1ccccc1 (stereo not shown) [Example 1CI]
pKi (HIV protease): 6.00 to 8.00 | IC90 (HIV-1 (RF) in MT-2 cells; [5]): < 10 µg/mL | melting point: 72.9 °C

O=C1N(Cc2ccccc2)CCC(=NO)C(Cc2ccccc2)N1Cc1ccccc1 (stereo not shown) [30T]
pKi ([1]; Table 2t, read-out: Ki): < 6.00
